The nature of data set [1]: Plasma pharmacokinetics of radioactivity after single oral (gavage) dose. Type of data set: in vivo, rats. Particulars: 75 mg/kg single oral (gavage).
The nature of data set [2]: Excretion mass balance after single oral (gavage) dose. Type of data set: in vivo, rats. Conditions: 75 mg/kg single oral (gavage).
The nature of data set [3]: Tissue distribution by quantitative whole body autoradiography after single oral (gavage) dose. Conditions: 75 mg/kg oral. Type of data set: in vivo, male Sprague Dawley rats.
Data set [4] in a line: Excretion mass balance after single intravenous dose. In kind it is in vivo, male Sprague Dawley rats. Conditions: 10 mg/kg intravenous, over 168 hours. From the text: (§1) The objectives of this study were to determine the plasma pharmacokinetics of [4-^14C]-25HC3S-derived radioactivity in male Sprague Dawley rats, determine the routes of elimination and excretion mass balance of [4-^14C]-25HC3S-derived radioactivity in male Sprague Dawley rats, determine the tissue distribution and tissue pharmacokinetics of [4-^14C]-25HC3S-derived radioactivity using quantitative whole body autoradiography methods in male Sprague Dawley and Long Evans rats following a single intravenous (bolus) dose, and to provide plasma, urine, and fecal homogenate samples for metabolite profiling of [4-^14C]-25HC3S-derived radioactivity.
(§2) Nine male Sprague Dawley rats (Group 1) were designated for the pharmacokinetic phase, 3 male Sprague Dawley rats (Group 2) for the excretion mass balance phase, and 7 male Sprague Dawley rats (Group 3) and 9 male Long Evans rats (Group 4) for the tissue distribution phase. All animals received a single intravenous dose of [^14C]-25HC3S at 10 mg/kg and a target radioactivity of 225 μCi/kg. […] Following blood collection, animals were euthanized by CO2 inhalation and carcasses frozen in a dry ice/hexane bath for processing by quantitative whole body autoradiography. Whole blood, plasma, urine, feces, cage rinse, and cage wash were analyzed for total radioactivity by liquid scintillation counting.

Data set [5] is described as follows: Tissue distribution by quantitative whole body autoradiography after single intravenous dose, pigmented rats. Type of data set: in vivo, male Long Evans rats. Particulars: 10 mg/kg intravenous.
Description: as §1, §2

Data set [6] can be described thus: Tissue distribution by quantitative whole body autoradiography after single intravenous dose. Type of data set: in vivo, male Sprague Dawley rats. Conditions: 10 mg/kg intravenous.
Description: as §1
as §2, with “μCi/kg. Blood samples were collected from all Group 1 animals at approximately 0.083, 0.25, 0.5, 1, 2, 4, 8, 12, 24, 48, and 72 hours post-dose. Urine and feces were collected from all Group 2 animals periodically through 168 hours post-dose.” for “μCi/kg.”

A short description of data set [7]: Plasma pharmacokinetics of radioactivity after single intravenous dose. Type of data set: in vivo, male Sprague Dawley rats. Conditions: 10 mg/kg single intravenous (bolus).
Description: as §1
as §2, with “μCi/kg. Blood samples were collected from all Group 1 animals at approximately 0.083, 0.25, 0.5, 1, 2, 4, 8, 12, 24, 48, and 72 hours post-dose. Urine and feces were collected from all Group 2 animals periodically through 168 hours post-dose.” for “μCi/kg.”

A short description of data set [8]: Metabolite profiling of plasma, urine and feces after intravenous dose. Conditions: intravenous 10 mg/kg. Type of data set: in vivo, male Sprague Dawley rats. The procedure: as §2, with “μCi/kg. Blood samples were collected from all Group 1 animals at approximately 0.083, 0.25, 0.5, 1, 2, 4, 8, 12, 24, 48, and 72 hours post-dose. Urine and feces were collected from all Group 2 animals periodically through 168 hours post-dose.” for “μCi/kg.”

A short description of data set [9]: Metabolite profiling of plasma and feces after oral dose. In kind it is in vivo, rats. Conditions: 75 mg/kg oral. The source says: Radiolabeled components in plasma and feces extracts were profiled and identified using radio-high performance liquid chromatography (HPLC) and high performance liquid chromatography/mass spectrometry (HPLC/MS) methods.
Data set [10] in a line: Single oral dose safety and pharmacokinetic study in NASH and healthy subjects. Type of data set: in vivo, human. The procedure:
The present Example was a randomized, dose ranging, single dose safety and pharmacokinetic study of 25HC3S administered to subjects with NASH and control healthy subjects. […] For each cohort, 10 subjects with NASH were enrolled which were further classified into cirrhotic and non-cirrhotic. Each subject received only one dose of study treatment. The second cohort was dosed after a review of safety and tolerability data from Cohort 1.

The mark [11] stands for this setting: 50 mg single oral dose, Healthy, Geometric Mean.
Setting [12] is: 50 mg single oral dose, Healthy, Mean.
Setting [13] is: 50 mg single oral dose, NASH, Geometric Mean.
[14] abbreviates: 50 mg single oral dose, NASH, Mean.
[15] abbreviates: 200 mg single oral dose, Healthy, Geometric Mean.
[16] abbreviates: 200 mg single oral dose, Healthy, Mean.
The mark [17] stands for this setting: 200 mg single oral dose, NASH, Geometric Mean.
Setting [18] is: 200 mg single oral dose, NASH, Mean.

Take `C[C@H](CCCC(C)(C)O)[C@H]1CC[C@H]2[C@@H]3CC=C4CC(OS(=O)(=O)O)CC[C@]4(C)[C@H]3CC[C@]12C` (stereo partly shown) [[^14C]-25HC3S]: the “terminal elimination phase T1/2” value in [1] is 27.3 h. For the same compound, the “plasma AUClast” value in data set [1] (radioactivity) is given as 96,400 h.ng equiv./g. In addition, in data set [2], the “dose recovered in urine, feces, and cage rinse” value is “approximately 94.5%”; the “recovered radioactivity in feces” value worked out at 94.2%. In addition, in [3], the “plasma:whole blood AUClast ratio” value amounted to 1.12; the “skin, thymus, prostate, and pituitary tissue concentrations” value is under 3000 ng equiv./g; the “tissue Tmax” value is at most 6 h; the “tissue distribution by QWBA” value is “broadly distributed and detected by quantitative whole body autoradiography in all tissues except the eye (lens)”. In addition, in data set [3], the “uveal tract and brain concentrations” value was “approximately 1000 ng equiv./g”; the “whole blood AUClast” value is on record as 127,000 h.ng equiv./g. Moreover, in data set [3] (calculated using AUClast), the “tissue:plasma ratio, adrenal gland” value was 6.64; the “tissue:plasma ratio, liver” value is recorded as 6.96; the “tissue:plasma ratio, small intestine (wall)” value is recorded as 15.4.
As for `C[C@H](CCCC(C)(C)O)[C@H]1CC[C@H]2[C@@H]3CC=C4[14CH2][C@@H](OS(=O)(=O)O)CC[C@]4(C)[C@H]3CC[C@]12C` [[4-^14C]-25HC3S], in data set [4], the “dose recovered in urine, feces, and cage rinse” value is reported as “approximately 100.2%”; the “recovered radioactivity in feces” value was found to be 83.0%. Moreover, the “binding to pigmented or non-pigmented skin or the uveal tract” value in data set [5] was “no difference”. For the same compound, in data set [5] (first 168 hours postdose), the “plasma or whole blood concentrations versus Sprague Dawley rats” value is reported as “no substantial difference”. Further, in data set [6], the “plasma:whole blood AUClast ratio” value is on record as 0.79; the “tissue distribution by QWBA” value was “broadly distributed and detected by quantitative whole body autoradiography in all tissues except the eye (lens)”. For the same compound, the “whole blood AUClast” value in data set [6] (Group 3) is listed as 25,200 h*ng-equiv./g. Moreover, in data set [6] (QWBA phase), the T1/2 in plasma came to 44.3 h, the “T1/2 in whole blood” value was determined as 52.2 h and the maximum plasma concentration was 12,400 ng-equiv./g. For the same compound, in [6] (calculated using AUClast), the “tissue:plasma ratio, liver” value was 11.4 and the “tissue:plasma ratio, small intestine (wall)” value is reported as 7.44. Also, the AUClast in liver in data set [6] (radioactivity) was ≤ 364,000 hng/g. Moreover, the “terminal elimination phase T1/2” value in data set [7] (plasma, PK phase) was found to be 26.6 h. Further, in [7] (total radioactivity), the “mean plasma C0” value is on record as 25,900 ng-equiv./g and the “plasma AUClast” value is 27,900 h*ng-equiv./g.
Regarding desmosterol sulfate, the “detection in plasma, urine, or feces samples” value in [8] is given as “Neither desmosterol sulfate nor 25-hydroxycholesterol was detected”. Further, the “detection in plasma or feces samples” value in data set [9] is “not found”.
As to `C[C@H](CCCC(C)(C)O)[C@H]1CC[C@H]2[C@@H]3CC=C4C[C@@H](O)CC[C@]4(C)[C@H]3CC[C@]12C` [M29, 25-hydroxycholesterol], in data set [8], the “detection in plasma, urine, or feces samples” value is “Neither desmosterol sulfate nor 25-hydroxycholesterol was detected”. In addition, in data set [9] (2 hour postdose plasma), the “relative observed intensity (ROI) in plasma” value is 37%. Besides, the “% of total dose in feces” value in [9] (pools 0 to 168 hours post-dose) is given as 1.9 % of total dose. The concentration at 2 h in [9] (Sprague Dawley, rat, 2 hour postdose plasma) was found to be 1230 ng/g.
As to `C[C@H](CCCC(C)(C)O)[C@H]1CC[C@H]2[C@@H]3CC=C4C[C@@H](OS(=O)(=O)[O-])CC[C@]4(C)[C@H]3CC[C@]12C.[Na+]` [25HC3S sodium], the AUC0-12 in [10] (setting [11]) amounted to 496.7 ng·h/mL; in [10] (setting [12]) it was 528.0 ng·h/mL; in data set [10] (setting [13]) it was 597.8 ng·h/mL; in data set [10] (setting [14]), 623.1 ng·h/mL; in [10] (setting [15]), 1162.8 ng·h/mL; in [10] (setting [16]) it was 1175.9 ng·h/mL. In addition, the AUC0-12 in data set [10] (setting [17]) worked out at 1495.2 ng·h/mL; in data set [10] (setting [18]) it was 1541.0 ng·h/mL. For the same compound, the AUC0-last turned out to be 450.0 ng·h/mL in [10] (setting [11]); 477.1 ng·h/mL in data set [10] (setting [12]); 476.1 ng·h/mL in [10] (setting [13]); 513.3 ng·h/mL in [10] (setting [14]); 1172.5 ng·h/mL in [10] (setting [15]); 1185.7 ng·h/mL in data set [10] (setting [16]). Besides, the AUC0-last is 1539.2 ng·h/mL in [10] (setting [17]) and 1581.6 ng·h/mL in [10] (setting [18]). For the same compound, the AUCinf stood at 423.3 ng·h/mL in data set [10] (setting [11]); 438.6 ng·h/mL in data set [10] (setting [12]); 608.3 ng·h/mL in [10] (setting [13]); 636.1 ng·h/mL in [10] (setting [14]); 1181.2 ng·h/mL in [10] (setting [15]); 1194.3 ng·h/mL in [10] (setting [16]). In addition, the results for the AUCinf in data set [10] (setting [17]) and in [10] (setting [18]) were 1411.8 ng·h/mL and 1428.5 ng·h/mL, respectively. Moreover, the CL/F (commonly clearance divided by bioavailability, as obtained after extravascular dosing) came out at 118.11 L/h in [10] (setting [11]); 122.35 L/h in data set [10] (setting [12]); 82.19 L/h in data set [10] (setting [13]); 85.29 L/h in data set [10] (setting [14]); 169.32 L/h in data set [10] (setting [15]); 171.25 L/h in [10] (setting [16]). For the same compound, the values for the CL/F in data set [10] (setting [17]) and in data set [10] (setting [18]) were 141.66 L/h and 143.19 L/h, respectively. For the same compound, the Cmax – broadly, the highest concentration seen after dosing – stood at 90.946 ng/mL in data set [10] (setting [11]); 93.967 ng/mL in data set [10] (setting [12]); 107.627 ng/mL in [10] (setting [13]); 113.170 ng/mL in [10] (setting [14]); 255.698 ng/mL in data set [10] (setting [15]); 260.500 ng/mL in data set [10] (setting [16]). Besides, the Cmax stood at 318.582 ng/mL in data set [10] (setting [17]) and 332.700 ng/mL in [10] (setting [18]). In addition, the T1/2 in data set [10] (setting [11]) was 1.889 h; in [10] (setting [12]), 1.906 h; in [10] (setting [13]), 1.670 h; in [10] (setting [14]) it was 1.674 h; in [10] (setting [15]) it was 1.719 h; in data set [10] (setting [16]), 1.753 h. In addition, the T1/2 worked out at 2.196 h in [10] (setting [17]) and 2.511 h in data set [10] (setting [18]). The Tmax (commonly the time at which the peak concentration occurs) in [10] (setting [11]) is given as 2.834 h; in [10] (setting [12]) it was 3.008 h; in data set [10] (setting [13]) it was 2.305 h; in data set [10] (setting [14]) it was 2.408 h; in data set [10] (setting [15]) it was 2.528 h; in [10] (setting [16]) it was 2.673 h. In addition, the time of peak concentration (Tmax) was found to be 2.647 h in data set [10] (setting [17]) and 2.906 h in data set [10] (setting [18]).

The values are drawn from patent US20230181601A1, “TREATMENT OF NON-ALCOHOLIC STEATOHEPATITIS (NASH)” (DURECT CORPORATION, priority 2020, published 2023).
